From patent US5306824A, “Biotinylated isocoumarins” (Georgia Tech Research Corporation, priority 1992, dated 1994)

Assays:
[1] = target: chymotrypsin (Bos taurus, UniProt P00766); test: Inactivation of chymotrypsin by biotin-isocoumarins (incubation method); type: biochemical, bovine; settings: pH 7.5, inhibitor 20-400 μM; 0.1 M Hepes, 0.5 M NaCl, pH 7.5, 5-10% Me2SO, 25° C.; two values given for some compounds; read-out: kobs/[I] Chymotrypsin
Description: (§1) Inactivation rates of serine proteases by substituted isocoumarins were measured by the incubation method. An aliquot of inhibitor (25 or 50 μl) in Me2 SO was added to a buffered enzyme solution (0.01-2.3 μM) to initiate the inactivation. Aliquots (50-100 μl) were withdrawn at various intervals and the residual enzymatic activity was measured. Me2 SO concentration in the reaction mixture was 8-12% (v/v). 0.1M Hepes, 0.5M NaCl, pH 7.5 buffer was utilized for the assays of chymotrypsin, cathepsin G (cat G), porcine pancreatic elastase (PPE), human leukocyte elastase (HLE) and rat granule serine proteases. 0.1M Hepes, 0.01M CaCl2, pH 7.5 buffer was utilized for the assays of trypsin and human recombinant (HR) granzyme A. The inhibitor concentrations are shown in the Tables I and II. Peptide nitroanilides with appropriate sequence were used as substrates for various serine proteases. All peptide 4-nitroanilide hydrolysis was measured at 410 nm (ε410 =8800M^-1 cm^-1; Erlanger et al., Arch. Biochem. Biophys. 95, pp 271-278 (1961), incorporated herein by reference). Peptide thioester hydrolysis rates were measured with assay mixtures containing 4,4'-dithiodipyridine (ε324 =19800M^-1 cm^-1; Grasetti & Murray, Arch. Biochem. Biophys. 119, pp. 41-49 (1967), incorporated herein by reference). First order inactivation rate constant (kobs) were obtained from plots of ln (vt /vo) vs time, and the correlation coefficients were greater than 0.98.
(§2) ^a Inhibition was measured in 0.1 M Hepes, 0.5 M NaCl (or 0.01 M
(§3) CaCl2), pH 7.5 buffer, 5-10% Me2 SO and at 25° C.
(§4) SucVal-Pro-NA (0.48 mM) was used as the substrate for chymotrypsin and ca
^b Inhibitor concentrations were 20-400 μM.

[2] = target: T1, cathepsin G (cat G) (Homo sapiens, UniProt P08311); test: Inactivation of cathepsin G by biotin-isocoumarins (incubation method); type: biochemical; settings: inhibitor 75-400 μM; pH 7.5, 25° C.; NI = no inhibition after 10 min of incubation; read-out: kobs/[I] Cat. G
T1 sequence (P08311 21-255): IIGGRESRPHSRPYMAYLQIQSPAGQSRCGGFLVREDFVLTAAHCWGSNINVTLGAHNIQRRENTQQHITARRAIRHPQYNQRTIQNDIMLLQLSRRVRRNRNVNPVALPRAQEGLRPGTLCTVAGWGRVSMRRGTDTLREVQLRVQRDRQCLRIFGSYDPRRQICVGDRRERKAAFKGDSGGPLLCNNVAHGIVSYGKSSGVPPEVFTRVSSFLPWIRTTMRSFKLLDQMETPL
Description: as §1, §2, §3, §4
(§5) G. MeOSuc-Ala-Ala-Pro-Val-NA (0.24-0.47 mM) and SucAla-Ala-Ala-NA
^c Inhibitor concentrations were 75-400 μM.
(§6) ^h No inhibition after 10 min of incubation of inhibitor and enzyme.
(§7) ^i Percentage of inhibition after 10 min of incubation of inhibitor

[3] = target: T2, human leukocyte elastase (HLE) (Homo sapiens, UniProt P08246); test: Inactivation of human leukocyte elastase by biotin-isocoumarins (incubation method); type: biochemical; settings: inhibitor 1.6-210 μM; pH 7.5, 25° C.; read-out: kobs/[I] HLE
T2 sequence (P08246 30-267): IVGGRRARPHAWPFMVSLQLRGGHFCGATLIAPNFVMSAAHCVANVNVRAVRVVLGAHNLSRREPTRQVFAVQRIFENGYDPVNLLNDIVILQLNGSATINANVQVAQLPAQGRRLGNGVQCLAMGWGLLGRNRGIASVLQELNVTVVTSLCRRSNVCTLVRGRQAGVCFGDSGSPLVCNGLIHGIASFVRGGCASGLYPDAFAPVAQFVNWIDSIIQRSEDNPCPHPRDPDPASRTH
Description: as §1, §2, §3, §5
(§8) (0.29-0.48 mM) were used as the substrate for HLE and PPE respectively.
^d Inhibitor concentrations were 1.6-210 μM.

[4] = target: porcine pancreatic elastase (PPE) (Sus scrofa, UniProt P00772); test: Inactivation of porcine pancreatic elastase by biotin-isocoumarins (incubation method); type: biochemical; settings: inhibitor 38-78 μM; pH 7.5, 25° C.; NI = no inhibition after 10 min of incubation; read-out: kobs/[I] PPE
Sequence of porcine pancreatic elastase (PPE) (P00772 27-266): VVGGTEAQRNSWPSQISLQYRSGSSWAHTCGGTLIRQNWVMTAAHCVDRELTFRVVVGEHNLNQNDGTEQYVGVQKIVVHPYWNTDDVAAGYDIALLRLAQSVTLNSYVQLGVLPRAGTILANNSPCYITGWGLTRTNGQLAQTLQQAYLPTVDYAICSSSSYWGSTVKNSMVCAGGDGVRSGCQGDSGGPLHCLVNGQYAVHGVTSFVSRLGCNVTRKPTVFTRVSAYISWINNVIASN
Description: as §1, §2, §3, §5, §8
^e Inhibitor concentrations were 38-78 μM.
as §6

[5] = target: T3, trypsin (Bos taurus, UniProt P00760); test: Inactivation of trypsin by biotin-isocoumarins (incubation method); type: biochemical; settings: inhibitor 41-42 μM; 0.1 M Hepes, 0.01 M CaCl2, pH 7.5, 25° C.; read-out: kobs/[I] Trypsin
T3 sequence (P00760 24-246): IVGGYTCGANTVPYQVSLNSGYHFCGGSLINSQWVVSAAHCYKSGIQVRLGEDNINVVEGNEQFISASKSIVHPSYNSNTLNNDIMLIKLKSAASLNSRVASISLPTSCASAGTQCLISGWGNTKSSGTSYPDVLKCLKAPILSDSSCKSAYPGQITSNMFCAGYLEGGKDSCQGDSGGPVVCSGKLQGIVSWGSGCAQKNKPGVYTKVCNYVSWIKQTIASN
Description: as §1, §2, §3
(§9) ZGlu-Phe-Arg-NA (0.032 mM) was a substrate for trypsin. ZArg-SBzl (0.120
^f Inhibitor concentrations were 41-42 μM.

[6] = target: T4, PPE (Sus scrofa, UniProt P00772); test: Reactivation of inhibited PPE in buffer and with NH2OH; type: biochemical, porcine; settings: for % of Enzyme Activity Reactivated, PPE +NH2OH: 0.4 M NH2OH, immediately after addition; for % of Enzyme Activity Reactivated, PPE in buffer: after removal of excess inhibitor, 25° C. for two days, 2880 min
T4 sequence (P00772 27-266): as the sequence (P00772 27-266) above
Description: (§10) ^a Inhibition was performed at 0.1 M Hepes, 0.5 M NaCl, pH 7.5 buffer
(§11) 10% Me2 SO and 25° C. Reactivation was carried out in the
presence of 0.4 M of NH2 OH, and occurred immediately after the
(§12) ^b Enzyme activity was measured after removal of excess inhibitor by
(§13) centrifugation at 0° C. with centricon10 microconcentrator and
(§14) staying at 25° C. for two days.

[7] = target: T3, trypsin; test: Reactivation of inhibited trypsin in buffer; type: biochemical; settings: after removal of excess inhibitor, 25° C. for two days
Description: as §10, §11, §12, §13, §14

[8] = target: T4, PPE; test: Effect of streptavidin and avidin on reactivation of inhibited PPE; type: biochemical, porcine; settings: monitored for two days
Description: ^a Percentage of regained enzymatic activity was measured in 0.1 M
Hepes, 0.5 M NaCl, pH 7.5 buffer, 8% Me2 SO and at 25° C.
Excess inhibitor was removed from enzymeinhibitor mixture by
centrifugation twice with Amicon microconcentrator10. Then 3-4 units of
avidin or strepavidin was added and enzymatic activity was monitored for […]

[9] = target: T5, human recombinant (HR) granzyme A (Homo sapiens, UniProt P12544); test: Inactivation of human recombinant granzyme A by biotin-isocoumarins (incubation method); type: biochemical; settings: inhibitor 160-210 μM, pH 7.5, 25° C.
T5 sequence (P12544 29-262): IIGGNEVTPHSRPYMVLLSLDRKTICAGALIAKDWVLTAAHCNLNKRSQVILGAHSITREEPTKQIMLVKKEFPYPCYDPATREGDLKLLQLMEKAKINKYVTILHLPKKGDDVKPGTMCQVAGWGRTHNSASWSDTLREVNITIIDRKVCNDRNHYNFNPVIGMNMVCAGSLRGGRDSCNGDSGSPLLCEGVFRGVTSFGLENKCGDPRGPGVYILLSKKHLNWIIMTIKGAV
Description: as §1, §2, §3, §9
mM) was a substrate for human recombinant (HR) granzyme A.
^g Inhibitor concentrations were 160-210 μM.
as §6, §7

| Structure (SMILES) | kinact/KI [1] [M⁻¹ s⁻¹] | kinact/KI [2] [M⁻¹ s⁻¹] | kinact/KI [3] [M⁻¹ s⁻¹] | kinact/KI [4] [M⁻¹ s⁻¹] | kinact/KI [5] [M⁻¹ s⁻¹] | % of Enzyme Activity Reactivated, PPE +NH2OH [6] [%] | % of Enzyme Activity Reactivated, PPE in buffer [6] [%] | % of Enzyme Activity Reactivated, Trypsin in buffer [7] [%] | % of Regained Enzyme Activity, PPE, +Avidin ([8]; 3-4 units avidin, 2880 min) [%] | % of Regained Enzyme Activity, PPE, +Streptavidin ([8]; 3-4 units streptavidin, 2880 min) [%] | % of Regained Enzyme Activity, PPE, Buffer ([8]; pH 7.5, 8% Me2SO, 25° C.) [%] | Percentage of inhibition of HR Granzyme A after 10 min of incubation of inhibitor and enzyme [9] [%] |
| --- | --- | --- | --- | --- | --- | --- | --- | --- | --- | --- | --- | --- |
| CCCOc1oc(=O)c2cc(NC(=O)CCCCCNC(=O)CCCC[C@@H]3SC[C@@H]4NC(=O)N[C@@H]43)ccc2c1Cl [Compound 4, 7-(6-biotinylaminocaproyl)amino-4-chloro-3-propoxyisocoumarin] | 260 | 3.3 | 76700 | 350 | 10.6 | 90 | 37 | 33 | 32 | 43 | 37 | – |
| CCOc1oc(=O)c2cc(NC(=O)CCCCCNC(=O)CCCC[C@@H]3SC[C@@H]4NC(=O)N[C@@H]43)ccc2c1Cl [Compound 5, 7-(6-biotinylaminocaproyl)amino-4-chloro-3-ethoxyisocoumarin] | 260 | 59 | 96000 | 520 | 16.6 | 93 | 66 | 92 | – | – | – | 26 |
